We go through one molecule from patent US6384236B1, “N-(aroyl)glycine hydroxamic acid derivatives and related compounds” (Pfizer Inc, priority 1995, dated 2002).

In turn, `COc1ccc(C(=O)NCC(=O)O)cc1OC1CCCC1` [Example 17] yielded a melting point of 156 to 168 °C.
